The record followed here is ChEMBL document CHEMBL1143512, “Antitubercular agents. Part 2: new thiolactomycin analogues active against Mycobacterium tuberculosis” (2005).

Converted amounts (≈) assume the structure as drawn. Some results are limits rather than exact numbers.

Common to all, as to assay type: functional
Experiment [1] has as its system Mycobacterium tuberculosis. In words: Minimum inhibitory concentration against Mycobacterium tuberculosis resistant clinical isolates.
In experiment [2] the test system is Mycobacterium tuberculosis. In words: Minimum inhibitory concentration against Mycobacterium tuberculosis resistant clinical isolates; Range: 8->16 ug/ml.
The subject of experiment [3] is Mycobacterium tuberculosis. In words: Minimum inhibitory concentration against Mycobacterium tuberculosis resistant clinical isolates; Range:4-16 ug/ml.
Experiment [4] relates to Mycobacterium tuberculosis. In words: Minimum inhibitory concentration against Mycobacterium tuberculosis resistant clinical isolates; Range: 1-4 ug/ml.

Broadly, the MIC is the lowest concentration found to suppress growth. `CC1=C(OCCCCCBr)C(C)SC1=O` (stereo not given) yielded an MIC in experiment [1] greater than 16 µg/mL. Regarding `NNC(=O)c1ccncc1` [ISONIAZID], the MIC in experiment [2] was greater than 16 µg/mL. In turn, `COC(=O)CSCCCOC1=C(C)C(=O)SC1C` (stereo not given) had an MIC in experiment [1] greater than 16 µg/mL. The same measure, in the same setting: with `CC1=C(OCCCCCN2CCN(C)CC2)C(C)SC1=O` (stereo not given) the figure was greater than 16 µg/mL. The same measure, in the same setting: the figure for `CC1=C(OCCCCCCCCBr)C(C)SC1=O` (stereo not given) is greater than 16 µg/mL. On the same count and under the same terms, with `COC(=O)CSCCCCCOC1=C(C)C(=O)SC1C` (stereo not given) the figure was greater than 16 µg/mL. `CC1=C(OCCCCCCBr)C(C)SC1=O` (stereo not given) returned a minimum inhibitory concentration (MIC) in experiment [1] greater than 16 µg/mL.

For `CC1=C(OCCCCN2CCOCC2)C(C)SC1=O` (stereo not given), in experiment [1], the MIC was greater than 16 µg/mL. Turning to `CC1=C(OCCCCCCCCCCBr)C(C)SC1=O` (stereo not given), in experiment [3], the MIC came to 16 µg/mL (≈ 44 µM). `CC1=C(OCCCN2CCOCC2)C(C)SC1=O` (stereo not given) gave a minimal inhibitory concentration (MIC) in experiment [1] greater than 16 µg/mL. Same read-out and setting: the figure for `COC(=O)CSCCCCCCCCCCOC1=C(C)C(=O)SC1C` (stereo not given) is greater than 16 µg/mL; for `CC1=C(OCCCCCCCCCCN2CCN(C)CC2)C(C)SC1=O` (stereo not given) it is greater than 16 µg/mL.

In experiment [1], `CC1=C(OCCCCBr)C(C)SC1=O` (stereo not given) yielded an MIC greater than 16 µg/mL. Same read-out and setting: the figure for `COC(=O)CSCCCCOC1=C(C)C(=O)SC1C` (stereo not given) is greater than 16 µg/mL. On the same count and under the same terms, the figure for `CC1=C(OCCCCCCCCN2CCN(C)CC2)C(C)SC1=O` (stereo not given) is greater than 16 µg/mL; for `CC1=C(OCCCBr)C(C)SC1=O` (stereo not given) it is greater than 16 µg/mL. Regarding `COC(=O)CSCCCCCCOC1=C(C)C(=O)SC1C` (stereo not given), the MIC in experiment [1] is greater than 16 µg/mL.

Turning to `COC(=O)CSCCCCCCCCOC1=C(C)C(=O)SC1C` (stereo not given), the MIC in experiment [4] turned out to be 4 µg/mL (≈ 11.1 µM). Regarding `CC1=C(OCCCCCCN2CCOCC2)C(C)SC1=O` (stereo not given), the MIC in experiment [1] was greater than 16 µg/mL.

As for `CC1=C(OCCCCCN2CCOCC2)C(C)SC1=O` (stereo not given), the MIC in experiment [1] is greater than 16 µg/mL. On the same count and under the same terms, with `CC1=C(OCCCN2CCN(C)CC2)C(C)SC1=O` (stereo not given) the figure was greater than 16 µg/mL; with `CC1=C(OCCCCCCCCCCN2CCOCC2)C(C)SC1=O` (stereo not given), greater than 16 µg/mL.

In experiment [1], `CC1=C(OCCCCCCN2CCN(C)CC2)C(C)SC1=O` (stereo not given) yielded a minimum inhibitory concentration (MIC) greater than 16 µg/mL. Molecule `CC1=C(OCCCCCCCCN2CCOCC2)C(C)SC1=O` (stereo not given) came in with an MIC in experiment [1] greater than 16 µg/mL. Still for that read-out and setting: with `CC1=C(OCCCCN2CCN(C)CC2)C(C)SC1=O` (stereo not given) the figure was greater than 16 µg/mL.
